Test systems include M14; COLO 205; OVCAR-4; SR; A549; RXF 393; Malme-3M; SN12C; HCT-15; CCRF-CEM; EKVX; SK-OV-3; OVCAR-3; UACC-257; 786-0; KM12; A498; NCI-H226; SK-MEL-5; NCI-H522.
Common to all, as to assay: growth of human tumour cells (NCI), 48 h

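1) Cells in 96-well plates. 2) Compound, 48 h, 5 concentrations. 3) Linear interpolation between surrounding doses. 4) Unreached endpoint = highest concentration. GI50 is the concentration that inhibits growth by half.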 Activity calls are given as the source filed them. Rule as the data show it: active = GI50 up to about 1.1 µM and inactive = higher.

On to `CSC1(C)C(=O)Nc2c(OCc3ccccc3)cc([N+](=O)[O-])cc21` (stereo not given), for which the GI50 with M14 is 29.8 µM (inactive); in the assay on COLO 205, > 100 µM (inactive); in the assay with OVCAR-4, > 100 µM (inactive); in the assay on SR, > 100 µM (inactive); with A549, 21.5 µM (inactive); in the assay on RXF 393 it was 51.3 µM (inactive). The GI50 in the assay with Malme-3M was 63.4 µM (inactive); with SN12C it was 13.4 µM (inactive); in the assay on HCT-15, 50.5 µM; in the assay on CCRF-CEM, 84.3 µM (inactive); in the assay with EKVX it was 29.4 µM (inactive); with SK-OV-3, > 100 µM (inactive). In addition, the GI50 was > 100 µM (inactive) in the assay with OVCAR-3; > 100 µM (inactive) in the assay with UACC-257; 12.9 µM (inactive) in the assay with 786-0; 96.8 µM (inactive) in the assay on KM12; 34.2 µM (inactive) in the assay with A498; 13.5 µM (inactive) with NCI-H226. Further, the GI50 was 15.3 µM (inactive) with SK-MEL-5 and 94.8 µM (inactive) in the assay with NCI-H522.

For the compound `COc1ccc2nc3cc(Cl)ccc3c(NCCCCCC(=O)NC(COc3ccc4ccc5cccnc5c4n3)COc3ccc4ccc5cccnc5c4n3)c2c1`, the GI50 in the assay on M14 is 26.7 µM (inactive); in the assay on COLO 205 it was 18.3 µM (inactive); with OVCAR-4, 30 µM (inactive); with SR, 3.14 µM (inactive); in the assay on A549, 15.5 µM (inactive); in the assay on RXF 393 it was 19.8 µM (inactive). The GI50 in the assay with Malme-3M was 45.9 µM (inactive); with SN12C, 17.8 µM (inactive); in the assay on HCT-15, 35.3 µM; with CCRF-CEM it was 2.28 µM (inactive); in the assay on EKVX it was 24.8 µM (inactive); in the assay on SK-OV-3, 36.9 µM (inactive). Moreover, the GI50 in the assay on OVCAR-3 is 28.5 µM (inactive); in the assay with UACC-257 it was 21.7 µM (inactive); with 786-0 it was 15.4 µM (inactive); with KM12 it was 27.9 µM (inactive); in the assay on A498, 17.3 µM (inactive); in the assay with NCI-H226, 20.8 µM (inactive). For the same compound, the GI50 in the assay with SK-MEL-5 is 16.8 µM (inactive); in the assay on NCI-H522, 24.1 µM (inactive).

As to `CC1(C)OC2OC(COC(=O)C(c3ccccc3)c3ccccc3)C3OC(C)(C)OC3C2O1` (stereo not given), the GI50 in the assay with M14 was 93.1 µM (inactive); in the assay on COLO 205, 31 µM (inactive); in the assay with OVCAR-4 it was 8.71 µM (inactive); with SR, > 10 µM (inactive); in the assay on A549, 26.1 µM (inactive); in the assay with RXF 393, 12.3 µM (inactive). Moreover, the GI50 with Malme-3M is 46.8 µM (inactive); in the assay on SN12C, 90.2 µM (inactive); with HCT-15, 6.73 µM; in the assay with CCRF-CEM it was 17.1 µM (inactive); with EKVX, > 10 µM (inactive); with SK-OV-3 it was > 10 µM (inactive). The GI50 in the assay on OVCAR-3 was > 10 µM (inactive); in the assay with UACC-257, > 10 µM (inactive); in the assay on 786-0, 24.7 µM (inactive); in the assay on KM12 it was 5.87 µM (inactive); in the assay with A498, > 10 µM (inactive); in the assay with NCI-H226, > 10 µM (inactive). Moreover, the GI50 was 7.11 µM (inactive) with SK-MEL-5 and 21.6 µM (inactive) with NCI-H522.

In the case of `Cc1ccc(S(=O)(=O)OCCOCCOCCOCCOCCOS(=O)(=O)c2ccc(C)cc2)cc1`, the GI50 was 45.1 µM (inactive) in the assay on M14; 17.2 µM (inactive) in the assay with COLO 205; 51.3 µM (inactive) in the assay with OVCAR-4; 54.3 µM (inactive) in the assay with SR; 69.8 µM (inactive) in the assay with A549; > 100 µM (inactive) with RXF 393. In addition, the GI50 in the assay with Malme-3M is 73.6 µM (inactive); in the assay on SN12C it was 39.7 µM (inactive); in the assay on HCT-15, 55.6 µM; with CCRF-CEM, 21.4 µM (inactive); in the assay with EKVX, 94.2 µM (inactive); with SK-OV-3, > 100 µM (inactive). Besides, the GI50 in the assay with OVCAR-3 is 21.7 µM (inactive); in the assay on UACC-257, 25 µM (inactive); in the assay on 786-0, 62.8 µM (inactive); in the assay with KM12, 55.7 µM (inactive); in the assay with A498, 44.4 µM (inactive); in the assay on NCI-H226 it was 33.5 µM (inactive). In addition, the GI50 was 18.4 µM (inactive) in the assay on SK-MEL-5 and 23.7 µM (inactive) with NCI-H522.

Turning to `C[N+](C)(C)c1ncnc2c1ncn2C1CC(O)C(CO)O1` (stereo not given), the GI50 with M14, in the assay on COLO 205, in the assay with OVCAR-4, in the assay with SR, in the assay with A549 and in the assay with RXF 393 was > 100 µM (inactive) each time. Moreover, the GI50 with Malme-3M is > 100 µM (inactive); in the assay with SN12C, > 100 µM (inactive); with HCT-15, greater than 100 µM; in the assay with CCRF-CEM, > 100 µM (inactive); in the assay on EKVX, > 100 µM (inactive); with SK-OV-3, > 100 µM (inactive). Also, the GI50 in the assay with OVCAR-3, with UACC-257, with 786-0, in the assay on KM12, in the assay on A498 and with NCI-H226 was > 100 µM (inactive) each time. Moreover, the GI50 in the assay on SK-MEL-5 and in the assay with NCI-H522 was > 100 µM (inactive) in each case.

Turning to `FC(F)(F)c1ccc(/N=N/N2CCCC2)cc1`, the GI50 is > 100 µM (inactive) in the assay with M14; > 100 µM (inactive) with COLO 205; > 100 µM (inactive) in the assay on OVCAR-4; 68.7 µM (inactive) with SR; > 100 µM (inactive) in the assay with A549; > 100 µM (inactive) with RXF 393. Further, the GI50 in the assay with Malme-3M is > 100 µM (inactive); in the assay with SN12C, > 100 µM (inactive); in the assay on HCT-15, greater than 100 µM; in the assay on CCRF-CEM it was > 100 µM (inactive); in the assay on EKVX, > 100 µM (inactive); in the assay with SK-OV-3, > 100 µM (inactive). Further, the GI50 was > 100 µM (inactive) in the assay with OVCAR-3; > 100 µM (inactive) in the assay on UACC-257; > 100 µM (inactive) with 786-0; 5.31 µM (inactive) in the assay with KM12; > 100 µM (inactive) in the assay on A498; > 100 µM (inactive) in the assay on NCI-H226. For the same compound, the GI50 is 42.6 µM (inactive) in the assay on SK-MEL-5 and > 100 µM (inactive) with NCI-H522.

For the compound `CCNC(=S)N/N=C/c1ccccn1`, the GI50 with M14 was 9.4 µM (inactive); with COLO 205, 3.24 µM (inactive); with OVCAR-4, 1.29 µM (inactive); in the assay on SR, > 100 µM (inactive); in the assay on A549, 7.62 µM (inactive); with RXF 393, 19 µM (inactive). The GI50 in the assay with Malme-3M is 5.78 µM (inactive); in the assay with SN12C it was 4.97 µM (inactive); in the assay with HCT-15 it was 6.64 µM; in the assay on CCRF-CEM it was 0.957 µM (active); with EKVX it was 4.54 µM (inactive); with SK-OV-3, 5.07 µM (inactive). For the same compound, the GI50 is 0.729 µM (active) in the assay with OVCAR-3; 6.65 µM (inactive) in the assay on UACC-257; 5.81 µM (inactive) with 786-0; 8.67 µM (inactive) in the assay with KM12; 5.09 µM (inactive) in the assay on A498; 3.83 µM (inactive) with NCI-H226. Also, the GI50 is 3.95 µM (inactive) with SK-MEL-5 and 0.579 µM (active) in the assay on NCI-H522.

With `Cn1c(=O)c2[nH]c(/N=N/N3CCN(CCO)CC3)nc2n(C)c1=O`, the GI50 in the assay on M14, with COLO 205, in the assay on OVCAR-4, with SR, in the assay on A549 and in the assay with RXF 393 was > 100 µM (inactive) in each case. The GI50 in the assay with Malme-3M was > 100 µM (inactive); in the assay on SN12C, > 100 µM (inactive); in the assay on HCT-15, greater than 100 µM; in the assay with CCRF-CEM, > 100 µM (inactive); in the assay on EKVX, > 100 µM (inactive); in the assay on SK-OV-3, > 100 µM (inactive). Besides, the GI50 with OVCAR-3, in the assay with UACC-257, in the assay with 786-0, in the assay on KM12, in the assay with A498 and with NCI-H226 was > 100 µM (inactive) in each case. For the same compound, the GI50 in the assay on SK-MEL-5 and with NCI-H522 was > 100 µM (inactive) each time.
